Read-outs that look alike come from different tables or passages of the source.
Tests used:
MV4–11 [1] = experiment: Antiproliferative activity, CellTiter-Blue; assay type: cell-based; conditions: for AML cell growth inhibition: SAR discussion of Table 1
FLT3-ITD [2] = molecular target: T1, FLT3-ITD (Homo sapiens, UniProt P36888, ITD); experiment: FLT3-ITD kinase inhibition, ADP-Glo kinase assay; assay type: biochemical; conditions: read-out: %FLT3 inhibition FLT3-ITD
T1 sequence (P36888 564-993): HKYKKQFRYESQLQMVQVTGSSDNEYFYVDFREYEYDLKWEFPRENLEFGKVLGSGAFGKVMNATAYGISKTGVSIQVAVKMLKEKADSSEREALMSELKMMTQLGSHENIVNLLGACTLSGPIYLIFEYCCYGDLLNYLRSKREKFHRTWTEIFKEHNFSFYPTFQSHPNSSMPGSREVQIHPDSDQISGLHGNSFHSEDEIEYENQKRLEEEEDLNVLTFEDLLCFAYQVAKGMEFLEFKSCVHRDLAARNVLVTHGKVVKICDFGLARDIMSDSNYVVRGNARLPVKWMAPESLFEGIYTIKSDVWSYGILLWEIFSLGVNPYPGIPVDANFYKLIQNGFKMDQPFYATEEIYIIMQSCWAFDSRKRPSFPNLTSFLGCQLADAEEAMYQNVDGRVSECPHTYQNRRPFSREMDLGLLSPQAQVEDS

c-Kit = conditions: read-out: IC50 c-Kit; cited from earlier work
Molm14 = experiment: Antiproliferative activity, CellTiter-Blue; assay type: cell-based
[3] = system: Molm13-res (FLT3 (ITD, D835Y)); experiment: Antiproliferative activity, CellTiter-Blue; assay type: cell-based; conditions: 72 h
MV4–11 [4] = conditions: cited from earlier work
Molm13 = conditions: cited from earlier work
FLT3-ITD [5] = molecular target: T2, FLT3-ITD (Homo sapiens, UniProt P36888); experiment: FLT3-ITD kinase inhibition, ADP-Glo kinase assay; assay type: biochemical; conditions: SAR discussion of Table 1
T2 sequence (P36888 564-993): T1 sequence (P36888 564-993)

ABL1-nonphosphorylated = ABL1-nonphosphorylated (Homo sapiens, UniProt P00519); conditions: read-out: Kd ABL1-nonphosphorylated; KdELECT; ref Zimmerman et al. [28]; cited from earlier work
ABL1-nonphosphorylated, sequence (P00519 whole entry): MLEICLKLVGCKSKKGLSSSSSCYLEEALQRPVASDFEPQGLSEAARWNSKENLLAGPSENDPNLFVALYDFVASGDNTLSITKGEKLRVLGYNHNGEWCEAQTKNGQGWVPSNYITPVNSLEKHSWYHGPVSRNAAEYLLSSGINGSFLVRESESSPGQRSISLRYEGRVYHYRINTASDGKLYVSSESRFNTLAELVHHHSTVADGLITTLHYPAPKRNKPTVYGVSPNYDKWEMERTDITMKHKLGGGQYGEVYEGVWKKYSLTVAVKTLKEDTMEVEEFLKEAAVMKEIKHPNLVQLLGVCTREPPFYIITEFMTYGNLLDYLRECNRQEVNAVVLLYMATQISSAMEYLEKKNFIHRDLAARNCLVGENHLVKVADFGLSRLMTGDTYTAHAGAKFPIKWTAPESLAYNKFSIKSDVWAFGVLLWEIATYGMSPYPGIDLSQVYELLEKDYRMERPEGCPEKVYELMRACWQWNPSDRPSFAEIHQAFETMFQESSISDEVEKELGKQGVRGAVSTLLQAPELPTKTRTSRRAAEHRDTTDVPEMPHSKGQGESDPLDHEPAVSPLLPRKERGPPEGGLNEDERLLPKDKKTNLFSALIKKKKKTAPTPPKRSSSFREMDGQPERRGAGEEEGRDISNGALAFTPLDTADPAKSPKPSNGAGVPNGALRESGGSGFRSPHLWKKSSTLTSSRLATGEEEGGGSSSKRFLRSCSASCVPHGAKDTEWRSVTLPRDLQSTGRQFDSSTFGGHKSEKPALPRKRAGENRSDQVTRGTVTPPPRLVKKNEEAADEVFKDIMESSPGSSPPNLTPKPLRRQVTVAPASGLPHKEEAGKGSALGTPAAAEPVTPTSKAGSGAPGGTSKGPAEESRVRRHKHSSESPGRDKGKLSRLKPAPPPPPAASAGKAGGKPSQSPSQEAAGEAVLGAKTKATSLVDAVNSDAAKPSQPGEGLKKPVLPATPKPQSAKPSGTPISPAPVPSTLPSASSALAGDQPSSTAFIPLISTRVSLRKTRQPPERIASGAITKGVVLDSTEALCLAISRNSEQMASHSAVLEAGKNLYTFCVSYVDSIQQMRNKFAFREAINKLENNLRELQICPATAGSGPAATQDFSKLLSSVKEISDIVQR

FLT3 D835Y = conditions: read-out: IC50 FLT3 D835Y; cited from earlier work
ABL1-phosphorylated = ABL1-phosphorylated (Homo sapiens, UniProt P00519); conditions: read-out: Kd ABL1-phosphorylated; KdELECT; ref Zimmerman et al. [28]; cited from earlier work
ABL1-phosphorylated, sequence (P00519 whole entry): as above

MKNK2 = MKNK2 (Homo sapiens, UniProt Q9HBH9); experiment: DiscoverX ScanEdge kinase profiling; assay type: binding; conditions: read-out: percent inhibition MKNK2
MKNK2, sequence (Q9HBH9 whole entry): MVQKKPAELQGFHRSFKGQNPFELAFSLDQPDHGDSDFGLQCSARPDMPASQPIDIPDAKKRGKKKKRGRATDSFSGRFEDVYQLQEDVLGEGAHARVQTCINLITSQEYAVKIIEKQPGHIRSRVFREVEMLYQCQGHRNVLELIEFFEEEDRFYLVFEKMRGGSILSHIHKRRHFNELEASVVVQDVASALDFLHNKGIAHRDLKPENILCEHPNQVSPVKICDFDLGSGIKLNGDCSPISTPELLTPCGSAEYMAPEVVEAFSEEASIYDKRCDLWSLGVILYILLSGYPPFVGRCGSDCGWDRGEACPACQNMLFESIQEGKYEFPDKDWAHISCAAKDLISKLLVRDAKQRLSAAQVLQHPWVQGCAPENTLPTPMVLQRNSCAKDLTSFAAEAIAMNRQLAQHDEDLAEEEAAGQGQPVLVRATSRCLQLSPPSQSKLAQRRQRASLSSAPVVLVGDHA

JAK3 = JAK3 (Homo sapiens, UniProt P52333); experiment: DiscoverX ScanEdge kinase profiling; assay type: binding; conditions: read-out: percent inhibition JAK3
JAK3, sequence (P52333 813-1124 limits assumed): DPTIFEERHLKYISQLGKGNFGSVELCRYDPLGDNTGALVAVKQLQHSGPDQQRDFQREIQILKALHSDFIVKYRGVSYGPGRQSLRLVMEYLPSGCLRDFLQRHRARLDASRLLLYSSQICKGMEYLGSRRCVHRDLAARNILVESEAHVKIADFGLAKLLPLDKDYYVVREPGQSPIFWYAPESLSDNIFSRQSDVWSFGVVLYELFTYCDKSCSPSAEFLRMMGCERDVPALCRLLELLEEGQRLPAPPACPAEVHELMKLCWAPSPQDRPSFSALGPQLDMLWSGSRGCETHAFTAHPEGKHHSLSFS

JAK2 = JAK2 (Homo sapiens, UniProt O60674); experiment: DiscoverX ScanEdge kinase profiling; assay type: binding; conditions: read-out: percent inhibition JAK2
JAK2, sequence (O60674 840-1132 limits assumed): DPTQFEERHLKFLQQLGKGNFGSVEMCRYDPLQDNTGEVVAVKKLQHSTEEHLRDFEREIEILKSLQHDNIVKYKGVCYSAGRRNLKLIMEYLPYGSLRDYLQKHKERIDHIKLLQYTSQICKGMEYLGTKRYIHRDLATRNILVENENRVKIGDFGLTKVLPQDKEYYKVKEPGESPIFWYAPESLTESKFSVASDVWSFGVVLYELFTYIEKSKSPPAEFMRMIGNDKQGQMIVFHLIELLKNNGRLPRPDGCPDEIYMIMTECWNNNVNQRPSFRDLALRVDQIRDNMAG

TOPK mRNA = experiment: Real-time PCR of TOPK mRNA in MV4–11 cells; assay type: cell-based; conditions: 24 h
TOPK = experiment: Western blot of TOPK protein in MV4–11 cells; assay type: cell-based
[6] = system: K562, NOMO-1, HL60 and MOLT4; experiment: Antiproliferative activity, non-FLT3-driven leukemia cell lines; assay type: cell-based; conditions: 72 h, read-out: IC50 range over non-FLT3-driven leukemia cell lines
phospho-STAT5 = experiment: Western blot of phospho-STAT5 in MV4–11 cells; assay type: cell-based
MV4–11 [7] = experiment: Cell cycle analysis; assay type: cell-based; conditions: MV4–11, 24 h
FLT3 = molecular target: T3, FLT3 (Homo sapiens, UniProt P36888); experiment: DiscoverX ScanEdge kinase profiling; assay type: binding; conditions: read-out: percent inhibition FLT3
T3 sequence (P36888 27-993): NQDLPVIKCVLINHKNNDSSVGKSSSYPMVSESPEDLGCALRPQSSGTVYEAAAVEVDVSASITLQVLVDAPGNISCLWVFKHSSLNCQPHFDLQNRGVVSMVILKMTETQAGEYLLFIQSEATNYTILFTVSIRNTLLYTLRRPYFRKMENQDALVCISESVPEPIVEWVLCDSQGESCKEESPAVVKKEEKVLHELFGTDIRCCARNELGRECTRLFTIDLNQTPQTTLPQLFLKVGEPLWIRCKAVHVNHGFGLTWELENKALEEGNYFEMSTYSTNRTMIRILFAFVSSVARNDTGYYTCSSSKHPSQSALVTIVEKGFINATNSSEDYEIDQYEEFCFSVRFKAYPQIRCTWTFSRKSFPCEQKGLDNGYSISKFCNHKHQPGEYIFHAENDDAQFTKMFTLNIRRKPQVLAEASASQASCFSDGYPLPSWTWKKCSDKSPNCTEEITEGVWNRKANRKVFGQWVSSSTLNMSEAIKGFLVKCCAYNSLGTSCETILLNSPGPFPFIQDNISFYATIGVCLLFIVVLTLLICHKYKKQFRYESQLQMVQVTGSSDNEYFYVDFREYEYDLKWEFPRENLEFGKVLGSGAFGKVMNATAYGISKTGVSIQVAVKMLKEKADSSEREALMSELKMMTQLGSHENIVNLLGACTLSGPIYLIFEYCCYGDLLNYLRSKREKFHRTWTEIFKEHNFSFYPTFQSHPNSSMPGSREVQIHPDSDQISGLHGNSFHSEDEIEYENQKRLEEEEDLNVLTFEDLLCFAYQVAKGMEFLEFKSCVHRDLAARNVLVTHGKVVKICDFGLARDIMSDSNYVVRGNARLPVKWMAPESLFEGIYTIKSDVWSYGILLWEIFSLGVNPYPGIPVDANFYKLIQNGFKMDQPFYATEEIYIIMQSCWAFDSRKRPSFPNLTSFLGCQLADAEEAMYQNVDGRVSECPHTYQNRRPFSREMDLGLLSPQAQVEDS

[8] = Homo sapiens, MV4-11, 72 h, read-out: IC50 MV4–11, 72 h
[9] = Homo sapiens, MOLM-14, 72 h, read-out: IC50 Molm14, 72 h
[10] = read-out: IC50 Molm13-res, 72 h

Row | SMILES | IC50 (MV4–11 [1]; [8]) | AML cell growth inhibition (MV4–11 [1]) | inhibition at 0.1 µM (FLT3-ITD [2]) | further results
1 | c1cncc(-c2n[nH]cc2-c2nc3ccc4[nH]ncc4c3c3c2CCCC3)c1 [Compound 15] | 1300 nM | inactive compounds | 6% | 
2 | CCc1nc(C(N)=O)c(Nc2ccc(N3CCC(N4CCN(C)CC4)CC3)c(OC)c2)nc1NC1CCOCC1 [gilteritinib] |  |  |  | IC50 (c-Kit): 230 nM
3 | FC(F)(F)c1cc(-c2nc3ccc4[nH]ncc4c3c3c2CCCC3)n[nH]1 [Compound 13] | > 5000 nM | inactive even at 1000 nM | 5% | 
4 | Cc1n[nH]cc1-c1nc2ccc3[nH]ncc3c2c2c1CCCC2 [Compound 9] | 61.5 nM | potent inhibitors of AML proliferation | 54% | IC50 (Molm14; [9]): 64.1 nM; IC50 [3, 10]: 86.7 nM
5 | CO[C@@H]1[C@H](N(C)C(=O)c2ccccc2)C[C@H]2O[C@]1(C)n1c3ccccc3c3c4c(c5c6ccccc6n2c5c31)C(=O)NC4 [PKC412 (midostaurin), midostaurin] |  |  |  | effect on cell cycle (MV4–11 [4]): did not affect cell cycle pattern; effect on cell cycle (Molm13): did not affect cell cycle pattern
6 | c1cc(-c2n[nH]cc2-c2nc3ccc4[nH]ncc4c3c3c2CCCC3)cs1 [Compound 17] | 772 nM | inactive compounds | 19% | 
7 | FC(F)(F)c1n[nH]cc1-c1nc2ccc3[nH]ccc3c2c2c1CCCC2 [Compound 19] | 898 nM | did not inhibit FLT3 enzymatic activity or AML cell growth | 8% | FLT3 enzymatic inhibition (FLT3-ITD [5]): did not inhibit FLT3 enzymatic activity
8 | CC1(COc2ccc3c(c2)ncn3-c2ccc3cccc(N4CCC(N)CC4)c3n2)COC1 [Crenolanib, crenolanib] |  |  |  | Kd (ABL1-nonphosphorylated): 140 nM; IC50 (FLT3 D835Y): 6.9 nM; Kd (ABL1-phosphorylated): 430 nM
9 | Nc1ncc(-c2ccncc2)nc1Nc1ccc2[nH]ccc2c1 [AKN-028] |  |  |  | effect on cell cycle (MV4–11 [4]): induce arrest in the G0/1 phase
10 | NC1CCc2c(c(-c3c[nH]nc3C(F)(F)F)nc3ccc4[nH]ncc4c23)C1 (stereo not drawn) [Compound 7] | 132 nM | less active | 71% | 
11 | c1[nH]nnc1-c1nc2ccc3[nH]ncc3c2c2c1CCCC2 [Compound 12] | 154 nM | not as active as HSD1169 | 56% | 
12 | C[C@H]1CC[C@H](n2c3cnccc3c3cnc(Nc4ccc5c(n4)CCN(C(=O)CO)C5)nc32)CC1 [AMG 925] |  |  |  | effect on cell cycle (Molm13): induce arrest in the G0/1 phase
13 | c1ccc(-c2n[nH]cc2-c2nc3ccc4[nH]ncc4c3c3c2CCCC3)cc1 [Compound 14] | 1450 nM |  | 26% | 
14 | OCCn1cc(-c2nc3ccc4[nH]ncc4c3c3c2CCCC3)cn1 [Compound 20] | 1390 nM | inactive compounds | 27% | 
15 | FC(F)(F)c1n[nH]cc1-c1nc2ccc3[nH]ncc3c2c2c1CCCC2 [HSD1169] | 5 nM | potent inhibitors of AML proliferation | 80% | IC50 (MV4–11 [1]; read-out: IC50 MV4–11, 72 h, listed as 4 (HSD1169)): 5.4 nM; inhibition at 0.5 µM (MKNK2): > 90%; IC50 (Molm14; [9]): 5 nM; IC50 (Molm14; read-out: IC50 Molm14, 72 h, listed as 4 (HSD1169)): 4.9 nM; inhibition at 0.5 µM (JAK3): > 90%; inhibition at 0.5 µM (JAK2): > 90%; TOPK mRNA level (TOPK mRNA): downregulation of TOPK mRNA; TOPK protein level (western blot, words) (TOPK): reduction of TOPK protein in a dose-dependent manner; IC50 [6]: 620 to 1860 nM; IC50 [3, 10]: 5 nM; IC50 ([3]; read-out: IC50 Molm13-res, listed as 4 (HSD1169)): 5.1 nM; phosphorylation of STAT5 (western blot, words) (phospho-STAT5): inhibited the phosphorylation of STAT5; effect on cell cycle (MV4–11 [7]): dose-dependent increase in the percentage of cells in the G0/1 phase; inhibition at 0.5 µM (FLT3): > 90%

— paper PMC6367750 (Future Medicinal Chemistry, 2018)
